Measurements: PubChem BioAssay (NCI)
Where “and” joins values, the source holds several entries; their conditions need not be identical. Identical values can stand only once.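 All cell lines were grown in 96-well plates and treated with compound for 48 hours. The concentration for 50% growth inhibition is given as GI50. TGI: total growth inhibition.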

Assays:
Experiment in all cases: DTP human tumour cell line panel, 48 h
MOLT-4 leukemia = test system: MOLT-4 leukemia
786-0 renal = test system: 786-0 renal
OVCAR-5 ovarian = test system: OVCAR-5 ovarian
SW-620 colon = test system: SW-620 colon
HCT-116 colon = test system: HCT-116 colon
HT29 colon = test system: HT29 colon
MALME-3M melanoma = test system: MALME-3M melanoma
SR leukemia = test system: SR leukemia
U251 CNS = test system: U251 CNS
HCT-15 colon = test system: HCT-15 colon

Row | Compound | GI50 (MOLT-4 leukemia) [µM] | TGI (MOLT-4 leukemia) [µM] | GI50 (786-0 renal) [µM] | TGI (786-0 renal) [µM] | GI50 (OVCAR-5 ovarian) [µM] | TGI (OVCAR-5 ovarian) [µM] | GI50 (SW-620 colon) [µM] | TGI (SW-620 colon) [µM] | GI50 (HCT-116 colon) [µM] | TGI (HCT-116 colon) [µM] | GI50 (HT29 colon) [µM] | TGI (HT29 colon) [µM] | GI50 (MALME-3M melanoma) [µM] | TGI (MALME-3M melanoma) [µM] | GI50 (SR leukemia) [µM] | TGI (SR leukemia) [µM] | GI50 (U251 CNS) [µM] | TGI (U251 CNS) | GI50 (HCT-15 colon) [µM] | TGI (HCT-15 colon) [µM]
1 | CN(CCOc1ccc(C#N)cc1)CCOc1ccc(C#N)cc1 | 15.1 | 68.7 | > 100 | > 100 | > 100 | > 100 | 57.5 | > 100 | 60.5 | > 100 | > 100 | > 100 | > 100 | > 100 | 5.21 | 61 | 81.4 | > 100 µM | 25.4 | > 100
2 | COc1ccc2oc3cccc(NCCN(C)C)c3c(=O)c2c1 |  | 12.7 |  | 23.5 |  | 24.9 |  | 15.6 |  | 19.8 |  | 20.3 |  | 29.2 |  | 27.1 |  | 25.3 µM |  | 27.1
3 | Fc1cccc(COc2ccc(Nc3ncnc4cc(-c5ccc[nH]5)sc34)cc2Cl)c1 | 2.59 | > 25 | 1.22 | 5.32 | 2.22 | 24.9 | 8.56 | > 25 | 7.46 | > 25 | 7.47 | > 20.6 | 2.65 | 14.6 | 13.6 | > 25 | 3.51 | 17.5 µM | 0.264 | > 13
4 | CN(C)C(=S)N=Nc1c(O)[nH]c2ccccc12 | 0.619 | > 49.7 | 0.891 | 12.2 | 1.49 | 21 | 0.576 | 21.6 | 0.303 | 3 | 0.558 | 17 | 1.75 | 14.2 | 0.429 | 9.38 | 0.392 | 27.6 µM | 0.455 | 23.4
5 | CC1C(=O)C(C)C(c2ccccc2)N(N=O)C1c1ccccc1 (stereo not drawn) |  | > 1000 |  | 359 |  | > 881 | > 1000 | > 1000 |  | 354 |  | > 833 |  | > 516 |  | > 1000 | 131 | > 92.4 µM and 397 µM | > 1000 | > 1000
6 | O=C1CC[C@@H](S(=O)(=O)c2ccccc2)[C@@H](/C=C/c2ccccc2)O1 |  | > 100 |  | > 100 |  | > 100 |  | > 100 |  | > 100 |  | > 100 |  | > 100 |  | > 100 |  | > 100 µM |  | > 100
7 | CC(C)CC1=[N+]=C(NC#N)N=C(CCC(=O)Nc2ccccc2[N+](=O)[O-])C1 |  | > 100 |  | > 100 |  | > 100 |  | > 100 |  | > 100 |  | > 100 |  | > 100 |  | > 100 |  | > 100 µM |  | > 100
8 | COc1ccc2c3c(c(=O)n(C)c2c1OC)C=CC(C)(C)O3 |  | 54.7 |  | > 100 |  | > 100 |  | > 100 |  | > 100 |  | 72.7 |  | > 100 |  | 24.9 |  | > 100 µM |  | 27.9
9 | Cc1cccc(C(C)C)c1NC(=O)C(=O)CC(=O)c1c(C)n([O-])c2ccccc2[n+]1=O |  | 59.8 |  | > 100 |  | > 100 |  | > 100 |  | > 100 |  | > 100 |  | 44.1 |  | 78.5 |  | 95.9 µM |  | 62.2
10 | CC(=O)n1c2ccccc2c2nc3nc(Oc4ccc(C)cc4)c4ccccc4c3cc21 |  | > 100 |  | > 100 |  | > 100 |  | > 100 |  | > 100 |  | > 100 |  | > 100 |  | > 100 |  | > 100 µM |  | > 100
